The values below come from patent publication US20260007716A1, “DESLORELIN FOR ATTENUATION OF ANIMAL URINE ODOR” (priority 2022, published 2026).

In data set [1] the test system is male cats. As to the kind of experiment: Multi-site field, double-masked, placebo-controlled study of a single 4.7 mg deslorelin implant in male cats (Example 1). The data set is classed as in vivo. The procedure: The aim of this multi-site field, double-masked, placebo-controlled, randomized study was to confirm that deslorelin implants can be used as a neutering option for male cats and can also reduce their associated tomcat sexual behaviours.
Privately owned indoor male cats [3 months-11 years of age] were allocated to two groups to be either implanted with one 4.7 mg deslorelin implant (Suprelorin® 4.7 mg, Virbac, France) or to receive sodium chloride. The implant and the saline solution were administered subcutaneously between the shoulder blades on day 0 (D0). Serum testosterone concentrations in ng/ml (T), sexual behaviors (presence of urine marking, frequency of vocalization, frequency of aggressiveness) and presence of intact male cat urine odour were assessed until month (M) 12 (D372). General safety assessments, bodyweight, appetite and adverse reactions were regularly followed.
The protocol received ethical approval. The Cochran-Mantel-Haenszel test stratified by center with the RIDIT transformation and the general association statistic were used for comparison between groups.
Among n=205 Male Cats, n=154 received Suprelorin® 4.7 mg (treated group) and n=51 received the saline solution as control group.

The subject of another data set is dogs. The following applies: cited from earlier work.
A further data set relates to cat. In words: Safety study in cat and tolerance studies in male and female species. The following applies: safety study in cat, high dose. The class given is in vivo.
For data set [2], the system named is male cats. In words: Cat field studies 1 and 2: suppression of fertility, re-implantation and reversibility (Example 4). The data set is classed as in vivo. How it is done: This example provides the data collected from 2 combined studies (Double-masked Placebo-Controlled randomized) that have been conducted sequentially according to the following schedule: • Study 1: The study 1 has been conducted on a group of 205 male cats divided into two groups, one Control Group that received 1 mL of saline solution (n=51-subcutaneous administration) and one Treated Group (n=154) that received an implant of Suprelorin® 4.7 mg (subcutaneous implant-deslorelin acetate). • Study 2: At the end of a first period of 12 months, the Suprelorin® implant was removed in all the male cats belonging to the Treated Group. 12 male cats of the Treated Group issued from study 1 were then administered saline solution (1 mL subcutaneously) (Saline Group) and 22 cats of the Treated Group issued from Study 1 were re-implanted with a new Suprelorin® 4.7 mg implant for a second period of time of 12 months (Treated twice Group). The efficacy and safety of the re-implantation was followed-up for these supplementary 12 months, i.e. for a total of 24 months.
The observation schedule was as follows: • Study 1: V1: Day −14 to −7; V2: Day 0; V3: 1.5 months±3 days; V4: 3 months±5 days, V5: 6 months±5 days, V6: 9 months±5 days; V7: 12 months±5 days; • Study 2: V8: 12 months±3 days; V9: 13.5 months±3 days; V10: 15 months±5 days; V11: 18 months±5 days; V12: 21 months±5 days; V13: 24 months±5 days.
Regarding the enrolment criteria, in both studies the criteria were as the following: • Domestic Cats • Age >3 MONTHS old or >15 MONTHS in Study 2 • Intact Indoor males • Client-owned (including shelter cats/rehomed by foster families)
With the additional criteria for study 2 of being a success in study 1.
In these studies the following primary endpoints were measured: • For Study 1: the suppression of fertility (Testosterone≤0.10 ng/ml*from V4 until V7*-3 to 12 months) • Study 2: the suppression of fertility (Testosterone≤0.10 ng/ml*from V8 until V13 (12 to 24 months) and the time to reversion effect.
In addition to the safety parameters (Haematology and blood biochemistry, Urinalysis, Local reactions at the implantation site, Change in Body weight, Appetite, Abnormal testicular evaluation, Adverse events), the following secondary endpoints have been reported as well: • Sexual behaviour sum score • Aggression • Vocalization • Urine marking • Urine Smell/odour • Penile Spines • Testicular volume

In data set [3] the test system is molecules responsible of urine odor. In words: LC-MS/MS metabolomic analysis of urine of male cats after deslorelin implant (Examples 2 and 3). The class given is in vivo, cat. The procedure: A first study A was performed in 2 groups of a total number of 7 male healthy cats old from 12 to 13 months and weighting between 4 and 6 kg in: Control group: n=3, intact males, administered sodium chloride (saline) on day 0 (D0), Chemically treated group: n=4 one implant of Suprelorin® 4.7 mg on day 0 (D0). The study A was conducted for a period of 63 days after the implantation of Suprelorin® 4.7 mg. From […]-7, a clinical examination of the cats was performed (body weight, temperature) and samples of urine and feces were collected. At D0, the cats of the treated group were implanted subcutaneously with Suprelorin® 4.7 mg (Virbac, France). From D7 to […], a weekly clinical examination of the cats was performed (body weight, temperature) and samples urine and feces were collected. […] Thanks to this unusual technic, the metabolomics present in samples have been assessed. […] The workflow template was untargeted metabolomics with statistics to detect unknowns with ID using online Databases and mzLogic.ons obtained from positive and negative ionization mode using MZmine (Version 2.39) were also analyzed. […] Chromatograms were detected using the ADAP chromatogram builder (MS level: 1, Minimum group size in number of scans: 5, Group intensity threshold: 5×10^2, minimum highest intensity: 10^5, m/z tolerance: 10 ppm). […]

Where [4] appears, read: vs saline group, throughout the study.

The structures appear in SMILES notation.

`CCNC(=O)[C@@H]1CCCN1C(=O)[C@H](CCCN=C(N)N)NC(=O)[C@H](CC(C)C)NC(=O)[C@@H](Cc1c[nH]c2ccccc12)NC(=O)[C@H](Cc1ccc(O)cc1)NC(=O)[C@H](CO)NC(=O)[C@H](Cc1c[nH]c2ccccc12)NC(=O)[C@H](Cc1cnc[nH]1)NC(=O)[C@@H]1CCC(=O)N1` [deslorelin]: in the data set with male cats [1] (one 4.7 mg implant), the “flare in sexual behavior” value is “No flare in sexual behavior”. Besides, the safety concerns result in the data set on male cats [1] (one 4.7 mg implant, up to M12) was “no safety concerns”. Moreover, in the data set with male cats [1] (setting [4]), the Sexual behavior scores result was “decreased significantly”, the testicular volumes result is “decreased significantly”, the urine odour entry was “decreased significantly” and the “visibility of penile spines” value is “decreased significantly”. The presence of deslorelin in the data set with dogs (dog, in vivo) is reported as 2.5 months. In the data set on dogs (dogs), the “duration of observed effect” value was “at least 6 months”. In addition, the adverse events entry in the data set with cat is listed as “neither serious adverse events nor live threatening events”. In addition, in the data set with male cats [2], the “duration of effective chemical castration” value is given as “at least 12 months”, the “reversibility of effect at the end of the treatment” value was “reversible” and the sexual behaviors result was “reduced”. The “onset of efficacy in behavioral reduction” value in the data set on male cats [2] (approx.) fell in the range of 7 to 31 days. Further, the safety concerns result in the data set on male cats [2] (single or repeated administration, up to 24 months) was “no safety concern”. Besides, in data set [3] (individually or together at least by two, summary of Example 3 data), the “levels of cadaverine, indole, paracresol, isovalthine and isobuteine” value was “down regulate”. For the same compound, the “p-coumaroylputrescine concentration in urine” value in data set [3] (male cat urine, as a function of time, chemically treated group vs control group) is listed as “decrease”.
